Measurements taken from article PMC11854273, “Screening of the Antimelanoma Activity of Monoterpenes—In Vitro Experiments on Four Human Melanoma Lines” (Current Issues in Molecular Biology, 2025).
Read-outs that look alike come from different tables or passages of the source.

What was measured:
[1] = system: normal human keratinocytes HaCaT; test: MTT cell viability assay, normal keratinocytes; type: cell-based; conditions: for IC50: Homo sapiens
Description: (§1) All tested cell lines—the HaCaT cell line model of human keratinocyte cells (density: 1 × 10^4 cells/mL) and four human malignant melanoma lines (density: 2–3 × 10^4 cells/mL, depending on the cell line—were plated on microtiter plates (NEST Biotechnology, Wuxi, China). After a day (24 h) of incubation, the medium was replaced with a fresh medium to which increasing concentrations of the tested substances were added. The experimental steps of the MTT assay were previously described. Each experiment in the MTT assay was performed in triplicate to ensure the repeatability and validity of the results.
(§2) Data were presented as means ± standard errors (SEMs).

[2] = system: A375 malignant melanoma cell line; test: MTT cell viability assay, A375; type: cell-based; conditions: Homo sapiens
Description: as §1, §2

A549 line = system: A549 line; set-up: method as in PMID 31202132; conditions: cited from earlier work
[3] = system: FM55P malignant melanoma cell line; test: MTT cell viability assay, FM55P; type: cell-based; conditions: Homo sapiens, 72 h
Description: as §1, §2

[4] = system: malignant melanoma cell lines A375, SK-MEL28, FM55P, FM55M2; test: MTT cell viability assay, four melanoma lines taken together; type: cell-based, human; conditions: for IC50: read-out: IC50 range depending on the melanoma cell line; for effect on melanoma cell viability (in words): four melanoma lines
Description: as §1, §2

[5] = system: malignant melanoma cell lines A375, SK-MEL28, FM55P, FM55M2; test: LDH cytotoxicity assay, melanoma lines; conditions: 72 h
Description: Four malignant melanoma cell lines, FM55P, FM55M2 (ECACC, Public Health England, Porton Down, UK), A375 and SK-MEL28 (ATCC, Manassas, VA, USA) were used. The immortalized human normal keratinocyte (HaCaT; ATCC, Manassas, VA, USA) served as a reference cell line. Of note, the A375 cell line is the original and not a CRISPR-modified version of the cell line, and all the tested cell lines in this study have the BRAF V600E mutation. The experimental cell culture conditions were as follows: 37 °C in a humidified atmosphere of 95% air and 5% CO2. The culture media used were as follows: for A375—DMEM high glucose; for SK-MEL28—EMEM; and for FM55P and FM55M2—RPMI1640 (All from Sigma-Aldrich, St. Louis, MO, USA). Previous publications described in more detail the growth conditions of these cell line cultures.
Specified densities (as above) of all the studied melanoma and normal human cell line were plated on microtiter plates (NEST). […] The LDH test was carried out after 72 h of incubation with the tested terpenes according to the manufacturer’s instructions. A more detailed description of the steps of the LDH test was previously provided.
GraphPad Prism (version 8.0, San Diego, CA, USA) was used for statistical analysis of the data (from the MTT and LDH tests). The analyses were performed with a one-way ANOVA test followed by Tukey’s post hoc test. Data were presented as means ± standard errors (SEMs). The median inhibitory concentration (IC50) values for the tested terpenes were calculated automatically with a computer-assisted log-probit method using an MS Excel spreadsheet, as previously described.

[6] = system: mouse melanoma B16(F10) cells; conditions: B16F10; cited from earlier work
[7] = system: FM55M2 malignant melanoma cell line; test: MTT cell viability assay, FM55M2; type: cell-based; conditions: Homo sapiens, 72 h
Description: as §1, §2

[8] = system: SK-MEL28 malignant melanoma cell line; test: MTT cell viability assay, SK-MEL28; type: cell-based; conditions: Homo sapiens
Description: as §1, §2

[9] = system: SW620 colon cancer cell line; set-up: method as in PMID 31323842; conditions: cited from earlier work
[10] = system: 4T1 breast cancer cell line; set-up: method as in PMID 32526880, PMID 30733560; conditions: cited from earlier work
[11] = system: A549 lung cancer cell line; set-up: method as in PMID 32420353; conditions: cited from earlier work
[12] = system: MDA MB-231 breast cancer cell line; set-up: method as in PMID 32526880, PMID 30733560; conditions: cited from earlier work
[13] = system: H1299 lung cancer cell line; set-up: method as in PMID 32420353; conditions: cited from earlier work
[14] = system: HT29 colon cancer cell line; set-up: method as in PMID 31323842; conditions: cited from earlier work
MCF-7 breast cancer line = system: MCF-7 breast cancer line; set-up: method as in PMID 32772589; conditions: cited from earlier work
MDA-MB-231 cells = system: MDA-MB-231 cells; set-up: method as in PMID 32772589; conditions: cited from earlier work
A431 skin cancer line = conditions: A431, MTT assay; cited from earlier work
[15] = system: Ishikawa cell line, of endometrial cancer; conditions: 24 h of incubation; cited from earlier work
[16] = system: colo-205 colon cancer cell line; conditions: cited from earlier work
[17] = system: liver cancer cell lines and mouse melanoma B16-F10; set-up: method as in PMID 23453306; conditions: authors' conversion of the μg/mL values; cited from earlier work
[18] = system: human cervical cancer, human lung cancer, monkey kidney cells and mouse macrophages; set-up: method as in doi:10.1590/S0044-59672007000200015; conditions: 200 µg/mL (≈1.5 mM); cited from earlier work
[19] = system: B16-F10 mouse melanoma cell lines; set-up: method as in PMID 22352891; conditions: B16-F10, MTT test, cited from earlier work
[20] = A549, authors' conversion, read-out: IC50
[21] = HaCaT, MTT assay, 72 h, mean ± SEM, read-out: IC50
[22] = A-375, A375, MTT assay, 72 h, mean ± SEM, read-out: IC50
[23] = FM55P, MTT assay, mean ± SEM, read-out: IC50
[24] = range over the four human melanoma lines, MTT, 72 h
[25] = FM55M2, MTT assay, mean ± SEM, read-out: IC50
[26] = SK-MEL-28, SK-MEL28, MTT assay, 72 h, mean ± SEM, read-out: IC50

Row | Structure (SMILES) | effect on normal keratinocyte cells (in words) ([1]; HaCaT, MTT) | effect on melanoma cell viability (in words) ([4]; MTT, 72 h) | concentration with statistically significant cytotoxicity towards melanoma cells [5] | IC50 [1, 21] | IC50 [2, 22] | IC50 [3, 23] | IC50 [4, 24] | IC50 [7, 25] | IC50 [8, 26] | concentration significantly affecting viability of normal keratinocytes ([1]; HaCaT, MTT, 72 h) | IC50 range depending on the melanoma cell line [4, 24] | other results
1 | Cc1ccc(C(C)C)cc1O [Carvacrol, carvacrol] | did not negatively affect normal human keratinocyte cells | showed a significant anti-viability effect | 50 to 650 µM | – | – | – | – | – | – | – | – | concentration up to which HaCaT viability was not significantly affected ([1]; HaCaT, MTT, 72 h): ≤ 650 µM; IC50 ([1]; HaCaT, 72 h): > 650 µM; IC50 ([2]; A-375, 72 h): 60 µM; IC50 (A549 line; [20]): ~670 µM; IC50 (A549 line; A549): 100 µg/mL; IC50 [3]: 60 ± 10 µM; IC50 ([4]; Homo sapiens, 72 h): 50 to 60 µM; selectivity index ([4]; SI = IC50 for HaCaT / IC50 for respective melanoma cell line, MTT): above 10; IC50 [6]: 120 ± 15 µM; IC50 [7]: 50 µM; IC50 ([8]; SK-MEL-28, 72 h): 60 ± 10 µM
2 | CC(C)=CCC/C(C)=C/C=O [Citral, citral] | at high concentrations, it had a negative effect on normal keratinocyte cells | showed a significant anti-viability effect | above 0.2 mM | 290 ± 10 µM | 130 ± 10 µM | 90 ± 10 µM | 80 to 130 µM | 80 µM | 100 ± 10 µM | – | – | IC50 ([9]; SW620, authors' conversion, read-out: IC50): ~148 µM; IC50 ([9]; SW620): 22.50 ± 2.50 µg/mL; inhibition of HaCaT proliferation ([1]; 0.3 mM, MTT): up to 28%; inhibition of HaCaT proliferation ([1]; highest concentration of 0.4 mM, MTT): approximately 10%; IC50 ([10]; 4T1, authors' conversion, read-out: IC50): ~140 µM; IC50 ([10]; 4T1): 21.4 ± 2.82 µg/mL; IC50 [11, 20]: ~11 µM; IC50 ([11]; A549): 1.73 ± 0.37 µg/mL; IC50 ([12]; MDA MB-231, authors' conversion, read-out: IC50): ~135 µM; IC50 ([12]; MDA MB-231): 20.5 ± 1.41 µg/mL; IC50 ([13]; H1299, authors' conversion, read-out: IC50): ~26 µM; IC50 ([13]; H1299): 4.01 ± 0.30 µg/mL; IC50 ([14]; HT29, authors' conversion, read-out: IC50): ~143 µM; IC50 ([14]; HT29): 21.77 ± 0.23 µg/mL
3 | CC(C)=CCCC(C)CCO (stereo not drawn) [Citronellol, citronellol] | – | showed a significant anti-viability effect | above 4.2 mM | 6270 ± 1150 µM | 3630 ± 560 µM | 2450 ± 380 µM | 2170 to 4810 µM | 2170 ± 300 µM | 4810 ± 290 µM | 1200 to 6000 µM | – | IC50 (MCF-7 breast cancer line): 80 µM; IC50 (MDA-MB-231 cells): 35 µM
4 | CC(C)=CCC/C(C)=C/CO [Geraniol, geraniol] | – | showed a significant anti-viability effect | – | > 650 µM | 270 ± 30 µM | 330 ± 20 µM | 270 to 440 µM | 420 ± 20 µM | 440 ± 30 µM | – | – | IC50 (A431 skin cancer line): 98 µM; IC50 [15]: 260 µM; IC50 [16]: 20 µM; IC50 [6]: 150 ± 19 µM
5 | C=CC(=C)CCC=C(C)C [Myrcene, myrcene] | – | – | – | – | – | – | – | – | – | 3000 µM | could not be determined | IC50 [17]: 70 to 90 µM; cytotoxic activity (in words) [18]: no cytotoxic activity; concentration up to which no significant inhibition of melanoma line growth ([4]; MTT, 72 h): up to 5 mM
6 | CC(C)=CCC/C(C)=C\CO [Nerol, nerol] | – | Its effect was not significant | – | – | – | – | – | – | – | – | could not be determined | concentration significantly affecting viability of normal keratinocytes ([1]; human, 72 h): 650 µM; concentration significantly affecting viability of melanoma cell lines ([4]; MTT, 72 h): 0.13 to 0.65 mM
7 | C=C(C)CCC[C@H](C)CCO [Rhodinol, rhodinol] | – | did not show any significant activity | – | – | – | – | – | – | – | ≥ 4800 µM | could not be determined | concentration significantly affecting viability of melanoma cell lines ([4]; MTT, 72 h): ≥ 4.8 mM
8 | Cc1ccc(C(C)C)c(O)c1 [Thymol, thymol] | at high concentrations, it affects the viability of normal cell lines without cytotoxicity | showed a significant anti-viability effect | above 0.03 mM | > 1300 µM | 480 ± 40 µM | 460 ± 50 µM | 460 to 530 µM | 530 ± 50 µM | 510 ± 30 µM | – | – | concentration from which cytotoxicity was statistically significant ([5]; SK-MEL28 line): ≥ 30 µM; IC50 ([19]; authors' conversion, read-out: IC50): 400 µM; IC50 [19]: 60.09 µg/mL
